The text below walks through data of US11780880B2, “High-activity memory-improving derivative peptide and use thereof” (Jilin Agricultural University, priority 2021, dated 2023).

Data set [1] can be described thus: ABTS free radical scavenging assay. Format: physicochemical. The settings on record: concentration of 100 μM. As to the method:
(1) ABTS free radical scavenging assay: Equal volumes of a 7 mmol/L ABTS aqueous solution and a 2.49 mmol/L potassium persulfate aqueous solution were mixed and left to stand in the dark for 12 h to obtain an ABTS free radical stock solution, which was stored at 4° C. When in use, the stock solution was diluted with 5 mmol/L PBS until the absorbance of the solution was 0.700±0.002 at 734 nm, and an ABTS free radical working solution was prepared. Separately, 10 μL of each of the aqueous solutions of derivative peptides with a concentration of 100 μM was added to a 96-well plate, while glutathione (GSH) of the same concentration was used as a control; these solutions reacted with 190 μL of ABTS free radical working solution accurately for 6 min, and absorbance values (A1) were measured at a wavelength of 734 nm using a microplate reader. The calculation formula for scavenging rate is as follows: […]
where A0 is the absorbance value that replaces the derivative peptide solution with distilled water;
A1 is the absorbance value of the solution adding a derivative peptide or GSH; and
A2 is the absorbance value of the solution using 5 mmol/L PBS instead of the ABTS free radical working solution.

The nature of data set [2]: Oxygen radical antioxidant capacity (ORAC) assay. It counts as physicochemical. The note with it: 100 μM aqueous solutions. As to the method:
(2) ORAC assay: (1) On a 96-well black plate, 25 μL each of PBS, Trolox standard solutions (12.5, 25, 50, and 100 μM) and aqueous solutions of five derivative peptides (100 μM) was added. The 96-well plate was placed and shaken in a microplate reader preheated for 30 min for 5 s, and incubated at 37° C. for 10 min. To each well, 150 μL each of FL working solution was added using a multi-channel pipette, and the plate was shaken for 5 s and incubated at 37° C. for 20 min. To each well, 25 μL each of AAPH was quickly added using the multi-channel pipette, and the plate was shaken for 5 s, followed by reading. The fluorescence intensity was continuously measured at an excitation wavelength of (485±20) nm and an emission wavelength of (530±20) nm. The whole system was held at 37° C., and the fluorescence intensity was measured every 2 min. Before each measurement, the well plate was shaken at a medium speed for 10 s, and the oscillation amplitude was 4 mm. The measurement was performed until the fluorescence intensity reached 5% of the initial fluorescence intensity (60 cycles were set in this assay). The relative fluorescence intensity is calculated by the area under the fluorescence decay curve (AUC) as follows: AUC=0.5×[2×(f0+f1 . . . +fn-1+fn)−f0−fn]×Δt
(1) In the formula, fn is the relative fluorescence intensity at the n-th measurement point; and Δt is the interval between adjacent time points, namely 2 min.
(2) The measurement results are expressed as ORAC values. The ORAC values of unknown samples are expressed in μmol TE/g. ORAC value=[(AUCSample−AUCBlank)/(AUCTrolox−AUCBlank)]×CTrolox/CSample.
Herein, AUCSample is the result of each of the aqueous solutions of five derivative peptides; AUCBlank is the result after adding 25 μL of PBS; AUCTrolox is the result after adding Trolox standard solution (100 μM); CTrolox is the molar concentration of Trolox, namely, 100 μM;
CSample is the molar concentration of each derivative peptide, calculated from the Trolox standard curve, where the Trolox standard curve is y=0.0756x+41.989, R^2=0.9931, the abscissa is the molar concentration of Trolox (12.5, 25, 50, or 100 μM), and the ordinate is AUCTrolox.

For data set [3], the system named is scopolamine-induced memory impairment model mice. The data set is described as follows: Morris water maze (place navigation and probe trial). It counts as in vivo, Male C57BL/6N mice. The procedure:
In vivo studies were performed in accordance with the Guide for the Care and Use of Laboratory Animals published by the […]. Male C57BL/6N mice weighing 25-30 g were purchased from Liaoning Changsheng Biotechnology Co., Ltd. (Benxi, China). Mice were housed at a stable temperature (22±1° C.) under a 12 h/12 h light/dark cycle. The mice were given access to standard diet and water ad libitum. […]
A circular pool for Morris water maze (1,200 mm in diameter) was filled with warm water at 20±2° C., while a platform (65 mm diameter) was hidden in the Southwest (SW) quadrant 1 cm below the water surface. A mouse was gently placed in the Northeast (NE) quadrant facing the pool wall, the swimming trajectory of the mouse was recorded by the image acquisition system, and the time was measured for 120 s. The time it took to find the platform in the SW quadrant within 120 s was recorded as the latency, while the mouse that reached the platform was allowed to sit on the platform for 10 s and then returned to the holding cage. […] Subsequently, the time from the mice being placed in the water to finding the platform was analyzed and calculated according to the data acquisition system (see FIG. 2A). […]
After the place navigation was completed, the platform hidden in the water was taken out. A mouse was gently placed in the Northeast (NE) quadrant facing the pool wall, the swimming trajectory of the mouse was recorded by the image acquisition system, and the time was measured for 90 s. According to the data acquisition system, the time spent in the target quadrant (see FIG. 2B) and the frequency of original platform crossing (see FIG. 2C) within 90 s were analyzed and calculated on the mouse. […]

A short description of data set [4]: Thermal stability testing (RP-HPLC peak area). Format: physicochemical. The note with it: 100 μM, pH 7.0, 20-100° C. water bath for 2 h. The procedure:
Thermal Stability Testing (see FIG. 4A): • Step 1, the solid powder of derivative peptide WYSGK (SEQ ID NO:4) was dissolved in distilled water to prepare a 100 μM solution, the pH value was adjusted to 7.0, and the resulting solution was stored at 4° C. for later use; • Step 2, the derivative peptide WYSGK (SEQ ID NO: 4) solution in step 1 was divided into five tubes (1 mL/tube), and each tube was placed in a water bath at 20, 40, 60, 80, and 100° C. for 2 h; • Step 3, the blank group (the derivative peptide WYSGK (SEQ ID NO: 4) solution in step 1 without water bath treatment) and the derivative peptide WYSGK (SEQ ID NO:4) solution at each temperature were filtered through a 0.22 μm filter membrane; • Step 4, RP-HPLC was performed under the following conditions: detection wavelength: 220 nm; column temperature: 25° C.; mobile phase A: acetonitrile+0.1% (v/v) TFA; mobile phase B: acetonitrile+0.1% (v/v) TFA. Elution conditions were programmed as follows: 0-25 min, 10%-35% B (the value could be input in the liquid phase equipment); flow rate 1.0 mL/min; and • Step 5, the peak area in the liquid chromatogram was calculated to determine whether the derivative peptide WYSGK (SEQ ID NO:4) was degraded at different temperatures (refer to Liu Xintong's method, Sci. Technol. Food Ind., Vol. 41, No. 19, 2020).

Data set [5] is described as follows: Simulated gastrointestinal digestion stability testing. The note with it: pepsin up to 2 h then trypsin up to 2 h, 37° C. Format: in vitro ADME.
Description: […]

The nature of data set [6]: Acid-base stability testing (RP-HPLC peak area). It counts as physicochemical. The settings on record: 100 μM, pH 2, 4, 6, and 8, 37° C. for 2 h. The procedure: Acid-base Stability Testing (see FIG. 4B): • Step 1, the solid powder of derivative peptide WYSGK (SEQ ID NO: 4) was dissolved in distilled water to prepare a 100 μM solution, which was used as a blank group and stored at 4° C. for later use; • Step 2, the solid powder of derivative peptide WYSGK (SEQ ID NO: 4) was diluted with aqueous solutions with pH 2, 4, 6, and 8 to a concentration of 100 μmol/L, respectively, and the resulting solutions were incubated in a water bath at 37° C. for 2 h; • Step 3, the blank group and WYSGK (SEQ ID NO: 4) sample solutions at different pH were filtered through a 0.22 μm filter membrane; • Step 4, RP-HPLC was performed under the following conditions: detection wavelength: 220 nm; column temperature: 25° C.; mobile phase A: 100% acetonitrile+0.1% TFA; mobile phase B: 100% acetonitrile+0.1% TFA. Elution conditions were programmed as follows: 0-25 min, 10%-35% B (gradient elution); flow rate 1.0 mL/min; and • Step 5, the peak area in the liquid chromatogram was calculated to determine whether the derivative peptide WYSGK (SEQ ID NO: 4) was degraded at different pH (refer to Liu Xintong's method, Sci. Technol. Food Ind., Vol. 41, No. 19, 2020).

Peptide text beside a SMILES is read from it.

As to `N[C@@H](CCC(=O)N[C@@H](CS)C(=O)NCC(=O)O)C(=O)O` [GSH, reduced glutathione, reference compound], the “ABTS free radical scavenging rate” value in data set [1] is listed as 31.39%. Moreover, the ORAC value in data set [2] is 995.58 μmol TE/g.
The like results for “Trp-Tyr-Lys-Gly-Lys (WYKGK; derivative peptide)” were, in that order, 40.31% and 3,681.50 μmol TE/g.
In the same order, the values of “Trp-Tyr-Glu-Gly-Lys (WYEGK; derivative peptide)” are 54.48% and 5,422.29 μmol TE/g.
As to “WYPGK: pine nut-derived antioxidant peptide, template for the derivative peptides (pine nut antioxidant peptide)”, in data set [3] (place navigation, 5-day training, FIG. 2A), the “escape latency compared with the model group” value is recorded as “shorter escape latency”. Also, in data set [3] (probe trial, within 90 s, FIG. 2B), the “time spent in target quadrant compared with the model group” value is listed as “significant decreases”. Besides, in data set [3] (probe trial, within 90 s, FIG. 2C), the “frequency of original platform crossing compared with the model group” value was “significant decreases”.
With “Trp-Tyr-Phe-Gly-Lys (WYFGK; derivative peptide)”, the “ABTS free radical scavenging rate” value in data set [1] came out at 36.56%. In addition, in data set [2], the ORAC value was 3,762.05 μmol TE/g.
`NCCCC[C@H](NC(=O)CNC(=O)[C@H](CO)NC(=O)[C@H](Cc1ccc(O)cc1)NC(=O)[C@@H](N)Cc1c[nH]c2ccccc12)C(=O)O` [WYSGK, Trp-Tyr-Ser-Gly-Lys] (H-WYSGK-OH; N-terminus and C-terminus assumed): in data set [4], the “degradation at different temperatures (thermal stability)” value was “hardly degraded”. Besides, in data set [5], the “retention rate of peptide content” value is “at least 93.45%”. Also, the “degradation at different pH (acid-base stability)” value in data set [6] was “hardly degraded”.
